Cc1nc2cc(N)ccc2s1
solubility (mole fraction)
Settings	288.5 K	293.5 K	298.5 K	303.5 K	308.5 K	313.5 K	318.5 K	323.5 K	328.5 K
in ethanol	0.00125	0.00129	0.00156	0.00164	0.00174	0.00194	0.0022	0.00253	0.00284
in water	0.000191	0.000269	0.000311	0.000491	0.000534	0.000745	0.000872	0.000937	0.00113

Source: BigSolDB 2.1
